According to patent publication EP4351590B1, “A GLUCOSE-METHOTREXATE CONJUGATE FOR USE IN PREVENTING OR TREATING AUTOIMMUNE DISEASES” (Uniwersytet Medyczny Im. Piastów Slaskich We Wroclawiu, priority 2021, dated 2022):
Like-named read-outs stand apart in the source and are kept apart here.

What was measured:
[1] = cited from earlier work
unstimulated HaCaT cells = experiment: MTT assay, cell viability, non-inflammatory cell model; type: cell-based; settings: 10 µM, incubation 48 hours, unstimulated HaCaT (non-inflammatory human keratinocytes), mean of 3 replicates
Experimental: SW982 and HaCaT cells were seeded in a 96-well plate at 10 x 10^3 cells per well. The next day, cells were incubated with TNF-a at a dose of 10 ng/ml to induce inflammation. After 24h, cells were treated with MTX or Glu-MTX at 10 µM dose and incubated for 48h. After 48 hours of incubation, the medium was decanted, and 100 µl of a solution of yellow soluble 3-(4,5-dimethyl-2-thiazolyl)-2,5-diphenyl-2H-tetrazolium bromide (MTT) at a concentration of 0.5-1 mg/ml was added. After 4 hours of incubation, the MTT solution was decanted, and 50 µl/well of DMSO was added. After 3 hours, the optical density of the dissolved formazan was analyzed colorimetrically in a BioTek plate reader.
Since living cells reduce MTT to formazan, the optical density (OD) is highest in control (C) wells which accounted for 100% of cell viability. Viability in wells incubated with compound (COMP) was calculated using the formula: X = 100% x OD COMP/OD C [formula]
Figures 1 and 2 show the results of a viability assessment study (IC50) for TNF-α-stimulated SW982 and HaCaT cell lines treated with methotrexate alone or a glucose-methotrexate (Glu-MTX) derivative. […] The test was also performed on an unstimulated HaCaT cell line, which is the counterpart of non-inflammatory human keratinocytes. […] The study used: 10 µM Glu-MTX, 10 µM Methotrexate; incubation 48 hours; MTT analysis. […]

[2] = cited from earlier work; remark: listed apart in the source

Row | Compound | solubility in water [1] | cytotoxicity (cell viability) (unstimulated HaCaT cells) | bioavailability ([2]; at higher doses) | bioavailability ([2]; at low doses) | plasma half-life ([2]; elimination from the circulation via the kidneys)
1 | CN(Cc1nc2c(N)nc(N)nc2[nH]c1=O)c1ccc(C(=O)N[C@@H](CCC(=O)O)C(=O)O)cc1 [7-OH-MTX] | sparingly soluble in water |  |  |  | 
2 | CN(Cc1cnc2nc(N)nc(N)c2n1)c1ccc(C(=O)N[C@@H](CCC(=O)O)C(=O)O)cc1 [MTX, Methotrexate] |  | much greater cytotoxicity | 10-20% | almost complete | 5 to 8 h
